Laboratory results: patent publication US20250382261A1 (The Broad Institute, Inc., priority 2021, published 2025)
Values after ≈ are worked out from the molar mass of the structure shown.

Experiments:
[1] = HEK293 cytotoxicity assay (Cell Titer Glo); assay type: cell-based; conditions: human, HEK293T Cytotoxicity (IC50, μg/mL)
Experimental: (§1) Cytotoxicity Assays. HEK293 (ATCC CRL 1573) cells were left to adhere for 18 h at 7.5×10^3 cells per well in DMEM containing 10% FBS and 2 mM L-glutamine. Compound was added directly into the well. After 48 h of treatment Promega Cell Titer Glo 2.0® was added, shaken for 10 min, and luminescence read (Biotek Neo). AC50 values were calculated using a four-parameter logistic curve in GraphPad Prism 9.
(§2) Focusing on only the analogs that retained synergistic activity with novobiocin (FICI≤0.5), half-maximal activity (AC50) values were calculated against HEK293 cells using a CellTiter-Glo® based assay to approximate cell viability. […] Specifically, the FICI value for both P35 and P36 was 0.094 against A. baumannii, while their AC50 values were 235 μg/mL and 200 μg/mL, respectively.

[2] = test system: HEK293 (ATCC CRL 1573) cells; experiment: HEK293 cytotoxicity assay (Cell Titer Glo); assay type: cell-based; conditions: human, 48 h
Experimental: as §1, §2

A. baumannii = experiment: Fold reduction of antibiotic MIC at fixed adjuvant concentration; assay type: cell-based; conditions: pentamidine or P35 at 50 μg/mL
Experimental: Bacterial strains and culture conditions. The following bacterial strains were used within this study; A. baumannii (ATCC 17978), K. pneumoniae (ATCC 43816), K. pneumoniae (ATCC 43816, expressing pGDP2:mcr-1), P. aeruginosa (PA01). Bacterial growth was in cation-adjusted Mueller-Hinton broth (MHB) at 37° C., and inoculum was prepared according to CLSI protocol (CLSI 2015).
Potentiation assays. Checkerboard analyses were conducted with each drug serially diluted at eight concentrations to create an 8×8 matrix. At least two biological replicates were done for each combination, and the means were used for FIC calculation. The FIC for each drug was calculated by dividing the concentration of the drug in the presence of codrug in a combination for a well showing <10% growth by the MIC for that drug alone. The FIC index (FICI) is the sum of the two FICs, with an FIC index≤0.5 deemed synergistic.

Solubility at pH 7.4 = assay type: physicochemical; conditions: pH 7.4, aqueous buffer, thermodynamic from solid; read-out: Kinetic solubility (μM @ pH 7.4)
Experimental: Thermodynamic solubility. P35 in solution at pH 7.4 was incubated at ambient temperature overnight with stirring using a vial roller system. The saturation of the solution was determined using HPLC-UV. This assay was performed in duplicate by Cyprotex Ltd.

[3] = In vitro metabolic stability, mouse; assay type: in vitro ADME; conditions: read-out: In vitro metabolic stability (t1/2, min), mouse
[4] = In vitro metabolic stability, rat; assay type: in vitro ADME; conditions: read-out: In vitro metabolic stability (t1/2, min), rat
[5] = In vitro metabolic stability, dog; assay type: in vitro ADME; conditions: read-out: In vitro metabolic stability (t1/2, min), dog
[6] = Plasma protein binding (equilibrium dialysis); assay type: in vitro ADME
Experimental: Plasma protein binding. Protein binding of P35 in mouse/rat/dog/human plasma was determined using an equilibrium dialysis method. The fraction of compound unbound to proteins was calculated with LC-MS/MS. This assay was performed in duplicate by Cyprotex Ltd.

hERG channel = hERG channel (Homo sapiens, UniProt Q12809)
Experimental: hERG channel assays. All assays were performed by Cyprotex Ltd. using an eCiphrCardio assay. CDI iCell® cardiomyocytes are plated onto fibronectin coated 48 well microelectrode array plates at a density of 50,000 cells per well in 5 μl iCell® plating medium. After 2 h, 300 μl of maintenance medium is added to each well. The plate is incubated for 2 days, and then the medium is completely changed to 500 μl of maintenance medium. The cells are incubated for an additional 3 days until a stable beating phenotype is achieved and the cells are ready for drug treatment. The medium is changed the day before dosing. […] The activity of cells in a 48-well microelectrode array is recorded prior to treatment (baseline) and at 1- and 48-hours post-treatment using the Axion Biosystems Maestro MEA system. The recording conditions are at 37° C. with 5% CO2 using the standard cardiac settings on the Axion Biosystems Maestro Axis software version 2.1. The results are analyzed with the Axion Biosystem software.

HepG2 cells = conditions: human, 72 h, 75 µM
in vivo = conditions: female, C57BL/6, mouse, in vivo, iv, 1 mg/kg
Experimental: Plasma samples were taken from 3 mice per time point (5, 15, 30 min; 1, 2, 4, 6 and 8 h post-dose). An aliquot of 2 μL sample was protein precipitated with 60 μL methanol, the mixture was vortex-mixed well and centrifuged at 13000 rpm for 10 min at 4° C. 2 μL supernatant was injected for LC-MS/MS analysis. The mean plasma concentration and the standard deviation from all 3 animals within each time point were calculated. PK parameters were calculated with a non-compartmental analysis. The mean plasma concentrations from all 3 mice at each time point were used in the calculations.

Chain of hERG channel (Q12809 whole entry): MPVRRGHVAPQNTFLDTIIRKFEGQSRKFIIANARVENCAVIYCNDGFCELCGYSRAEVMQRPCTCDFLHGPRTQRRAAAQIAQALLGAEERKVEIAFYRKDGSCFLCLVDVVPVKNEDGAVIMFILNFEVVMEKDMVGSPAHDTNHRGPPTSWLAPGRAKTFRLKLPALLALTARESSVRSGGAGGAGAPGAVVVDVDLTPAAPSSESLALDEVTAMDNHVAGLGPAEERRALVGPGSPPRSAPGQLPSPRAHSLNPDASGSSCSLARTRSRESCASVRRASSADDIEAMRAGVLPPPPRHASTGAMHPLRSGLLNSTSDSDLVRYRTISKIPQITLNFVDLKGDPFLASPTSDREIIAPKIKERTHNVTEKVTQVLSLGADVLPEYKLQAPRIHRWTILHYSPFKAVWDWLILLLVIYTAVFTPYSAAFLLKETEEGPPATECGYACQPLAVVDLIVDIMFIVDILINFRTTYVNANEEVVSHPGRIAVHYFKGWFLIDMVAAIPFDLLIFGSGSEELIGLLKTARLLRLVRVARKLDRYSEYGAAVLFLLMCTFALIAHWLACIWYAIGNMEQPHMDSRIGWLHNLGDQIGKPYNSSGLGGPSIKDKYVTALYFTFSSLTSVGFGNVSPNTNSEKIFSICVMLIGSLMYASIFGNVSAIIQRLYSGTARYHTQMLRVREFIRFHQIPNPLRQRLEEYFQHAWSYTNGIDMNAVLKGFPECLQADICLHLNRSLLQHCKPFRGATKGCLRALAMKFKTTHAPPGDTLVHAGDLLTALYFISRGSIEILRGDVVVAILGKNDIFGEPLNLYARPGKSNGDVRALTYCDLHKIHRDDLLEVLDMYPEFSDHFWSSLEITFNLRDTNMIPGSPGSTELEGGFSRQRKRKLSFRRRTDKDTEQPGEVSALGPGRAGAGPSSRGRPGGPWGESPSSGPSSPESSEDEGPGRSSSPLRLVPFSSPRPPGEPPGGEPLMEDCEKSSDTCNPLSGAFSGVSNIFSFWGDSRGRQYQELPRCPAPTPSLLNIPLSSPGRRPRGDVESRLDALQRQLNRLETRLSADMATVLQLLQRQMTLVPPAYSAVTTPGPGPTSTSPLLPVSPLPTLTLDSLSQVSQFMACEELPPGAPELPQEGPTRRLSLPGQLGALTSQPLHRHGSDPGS

Structure (SMILES): N=C(N)c1ccc(OCCN(CCOc2ccc(C(=N)N)cc2)c2ccccc2)cc1 [Analog P35]
- IC50 at 48 h [1]: 235 µg/mL
- HEK293T Cytotoxicity (IC50, μg/mL) [2]: 235.4 µg/mL
- Average Fold-reduction in MIC, Ampicillin (A. baumannii; MIC of ampicillin in A. baumannii): 1 fold
- Average Fold-reduction in MIC, Bacitracin (A. baumannii; MIC of bacitracin in A. baumannii): 2 fold
- Average Fold-reduction in MIC, Chloramphenicol (A. baumannii; MIC of chloramphenicol in A. baumannii): 2 fold
- Average Fold-reduction in MIC, Clarithromycin (A. baumannii; MIC of clarithromycin in A. baumannii): 384 fold
- Average Fold-reduction in MIC, Doxycycline (A. baumannii; MIC of doxycycline in A. baumannii): 4 fold
- Average Fold-reduction in MIC, Erythromycin (A. baumannii; MIC of erythromycin in A. baumannii): 32 fold
- Average Fold-reduction in MIC, Fusidic Acid (A. baumannii; MIC of fusidic acid in A. baumannii): 341.33 fold
- Average Fold-reduction in MIC, Linezolid (A. baumannii; MIC of linezolid in A. baumannii): 8 fold
- Average Fold-reduction in MIC, Meropenem (A. baumannii; MIC of meropenem in A. baumannii): 4 fold
- Average Fold-reduction in MIC, Mupirocin (A. baumannii; MIC of mupirocin in A. baumannii): 4 fold
- Average Fold-reduction in MIC, Nafcillin (A. baumannii; MIC of nafcillin in A. baumannii): 1.5 fold
- Average Fold-reduction in MIC, Nalidixic Acid (A. baumannii; MIC of nalidixic acid in A. baumannii): 4 fold
- Average Fold-reduction in MIC, Novobiocin (A. baumannii; MIC of novobiocin in A. baumannii): 512 fold
- Average Fold-reduction in MIC, Oxacillin (A. baumannii; MIC of oxacillin in A. baumannii): 1 fold
- Average Fold-reduction in MIC, Rifampicin (A. baumannii; MIC of rifampicin in A. baumannii): 384 fold
- Average Fold-reduction in MIC, Rifaximin (A. baumannii; MIC of rifaximin in A. baumannii): 256 fold
- Average Fold-reduction in MIC, Roxithromycin (A. baumannii; MIC of roxithromycin in A. baumannii): 341.33 fold
- Average Fold-reduction in MIC, Thiostrepton (A. baumannii; MIC of thiostrepton in A. baumannii): 170.67 fold
- Average Fold-reduction in MIC, Trimethoprim (A. baumannii; MIC of trimethoprim in A. baumannii): 5.33 fold
- Average Fold-reduction in MIC, Vancomycin (A. baumannii; MIC of vancomycin in A. baumannii): 4 fold
- thermodynamic solubility (Solubility at pH 7.4): 182 µM (≈ 76.2 µg/mL)
- half-life [3]: 91.6 min
- half-life [4]: 110 min
- half-life [5]: 137 min
- fraction unbound ([6]; dog plasma): 0.126
- fraction unbound ([6]; human plasma): 0.13
- fraction unbound ([6]; mouse plasma): 0.169
- fraction unbound ([6]; rat plasma): 0.077
- Effect on beating at 10 μM (hERG channel): loss of all detectable beating
- Direct hERG channel inhibition 1 h after exposure (hERG channel; human, 1 h): Neither pentamidine nor P35 directly inhibited the hERG channel
- Phospholipidosis MR, percentage in brackets (HepG2 cells): 104%
- AUC(0-inf) (in vivo): 55.3 ng·h/mL
- AUC(0-t) (in vivo): 51.6 ng·h/mL
- C0 (in vivo): 238 ng/mL
- MRT inf (in vivo): 1.85 h
- MRT last (in vivo): 1.24 h
- Vd (in vivo): 33.4 L/kg
- clearance (in vivo): 301 mL/min/kg
- half-life (in vivo): 96.6 min
